From patent publication US12264156B2, “Compounds and pharmaceutical compositions thereof for the treatment of diseases” (GALAPAGOS NV, priority 2018, dated 2025)

Key:
[1] = target: T1, SIK2 (Homo sapiens, UniProt Q9H0K1); assay: ADP-Glo kinase assay, SIK2; type: biochemical; details: ADP-Glo SIK kinase assay
T1 construct: purchased ThermoFisher Scientific PV4792
Method in brief: (§1)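 ADP-Glo luminescent assay of ADP formed by SIK2 or SIK3 with substrate after ATP addition, 120 min at RT. Remaining ATP depleted 40 min, then ADP converted to ATP and read by luciferase luminescence after 30 min. Controls: 1% DMSO and 10 μM staurosporine (final).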

[2] = target: T2, SIK1 (Homo sapiens, UniProt P57059); assay: ADP-Glo kinase assay, SIK1; type: biochemical; details: ADP-Glo SIK kinase assay
T2 construct: purchased Carna Biosciences 02-131
T2 sequence (P57059 whole entry): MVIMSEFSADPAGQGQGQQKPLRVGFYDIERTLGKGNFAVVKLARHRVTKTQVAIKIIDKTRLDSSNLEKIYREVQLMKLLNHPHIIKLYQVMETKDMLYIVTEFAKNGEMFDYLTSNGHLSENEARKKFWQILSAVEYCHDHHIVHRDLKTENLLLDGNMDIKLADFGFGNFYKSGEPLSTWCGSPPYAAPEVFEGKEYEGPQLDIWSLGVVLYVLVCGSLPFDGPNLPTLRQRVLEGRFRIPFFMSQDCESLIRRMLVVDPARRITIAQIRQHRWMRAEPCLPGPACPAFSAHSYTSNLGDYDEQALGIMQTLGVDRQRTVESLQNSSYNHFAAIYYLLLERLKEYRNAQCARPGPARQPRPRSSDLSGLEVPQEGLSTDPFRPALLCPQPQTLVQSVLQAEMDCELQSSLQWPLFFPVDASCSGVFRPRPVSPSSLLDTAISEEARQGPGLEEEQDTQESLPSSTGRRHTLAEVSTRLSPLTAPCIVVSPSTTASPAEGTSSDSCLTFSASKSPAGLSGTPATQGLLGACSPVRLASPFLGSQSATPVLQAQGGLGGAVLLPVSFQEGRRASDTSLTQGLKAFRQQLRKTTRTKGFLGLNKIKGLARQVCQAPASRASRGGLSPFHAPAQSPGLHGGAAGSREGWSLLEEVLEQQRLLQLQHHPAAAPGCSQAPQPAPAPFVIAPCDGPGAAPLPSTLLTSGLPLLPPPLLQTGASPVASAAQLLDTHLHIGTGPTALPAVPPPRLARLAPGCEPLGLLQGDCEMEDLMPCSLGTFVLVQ
Method in brief: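 Enzyme–substrate mix was started with ATP and incubated 120 min at RT. ADP formed was quantified by ADP-Glo: 40 min ATP depletion, then 30 min detection reagent converting ADP to ATP for luciferase luminescence, which rises with kinase activity. Controls: 1% DMSO and 10 μM staurosporine (final).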

[3] = tested on: LPS-induced TNFα in monocyte-derived macrophages (MdM); assay: MdM assay: LPS-triggered TNFα (ELISA); type: cell-based, human; details: Homo sapiens, Macrophage, 20 h, monocyte-derived macrophages, LPS 200 ng/mL, supernatant after 20 h; read-out: TNFα EC50
Method in brief: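 Human monocyte-derived macrophages from CD14+ bead-selected buffy-coat PBMCs, used on day 10, pre-treated with compound for 1 h at 37 °C (0.2% DMSO), then stimulated with 200 ng/mL LPS. Supernatant taken after 20 h for TNFα sandwich ELISA (IL-10 at 2 h).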

[4] = target: T3, SIK3 (Homo sapiens, UniProt Q9Y2K2); assay: ADP-Glo kinase assay, SIK3; type: biochemical; details: ADP-Glo SIK kinase assay
T3 construct: purchased SignalChem S12-11G-100
T3 sequence (Q9Y2K2 whole entry): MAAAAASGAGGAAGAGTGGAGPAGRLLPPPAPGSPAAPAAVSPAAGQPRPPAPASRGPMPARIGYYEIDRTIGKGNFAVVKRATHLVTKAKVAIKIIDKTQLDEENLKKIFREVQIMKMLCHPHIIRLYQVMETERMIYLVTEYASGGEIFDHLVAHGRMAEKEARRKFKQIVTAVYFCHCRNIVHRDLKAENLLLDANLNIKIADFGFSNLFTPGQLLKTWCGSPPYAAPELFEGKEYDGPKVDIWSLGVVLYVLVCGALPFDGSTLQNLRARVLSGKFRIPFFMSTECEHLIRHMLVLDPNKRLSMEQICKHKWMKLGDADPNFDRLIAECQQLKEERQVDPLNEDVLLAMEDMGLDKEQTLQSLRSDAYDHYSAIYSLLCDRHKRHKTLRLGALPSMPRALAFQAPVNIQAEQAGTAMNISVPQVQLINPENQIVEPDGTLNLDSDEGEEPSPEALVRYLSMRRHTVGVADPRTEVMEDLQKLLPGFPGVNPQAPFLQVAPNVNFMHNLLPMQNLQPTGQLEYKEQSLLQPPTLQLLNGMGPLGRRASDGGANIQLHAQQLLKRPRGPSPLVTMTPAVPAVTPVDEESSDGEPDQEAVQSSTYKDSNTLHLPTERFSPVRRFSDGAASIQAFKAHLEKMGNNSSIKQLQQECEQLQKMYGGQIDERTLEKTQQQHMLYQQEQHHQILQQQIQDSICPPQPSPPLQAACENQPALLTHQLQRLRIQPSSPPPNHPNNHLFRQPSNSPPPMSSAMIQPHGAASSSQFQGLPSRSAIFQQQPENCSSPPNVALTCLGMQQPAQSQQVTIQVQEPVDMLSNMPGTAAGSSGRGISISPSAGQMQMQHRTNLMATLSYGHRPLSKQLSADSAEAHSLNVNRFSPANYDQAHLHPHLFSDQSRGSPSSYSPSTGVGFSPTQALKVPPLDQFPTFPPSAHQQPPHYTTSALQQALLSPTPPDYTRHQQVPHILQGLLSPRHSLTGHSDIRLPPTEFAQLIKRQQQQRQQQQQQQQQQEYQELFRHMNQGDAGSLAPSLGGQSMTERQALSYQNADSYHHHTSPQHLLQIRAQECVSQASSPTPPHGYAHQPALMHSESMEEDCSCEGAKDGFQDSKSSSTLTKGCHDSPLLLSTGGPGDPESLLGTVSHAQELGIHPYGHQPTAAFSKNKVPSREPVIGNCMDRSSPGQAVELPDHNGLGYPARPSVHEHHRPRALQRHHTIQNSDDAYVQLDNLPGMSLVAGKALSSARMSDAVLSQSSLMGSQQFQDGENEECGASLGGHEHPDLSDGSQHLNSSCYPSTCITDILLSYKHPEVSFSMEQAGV
Method in brief: as §1

T1 sequence (Q9H0K1 whole entry): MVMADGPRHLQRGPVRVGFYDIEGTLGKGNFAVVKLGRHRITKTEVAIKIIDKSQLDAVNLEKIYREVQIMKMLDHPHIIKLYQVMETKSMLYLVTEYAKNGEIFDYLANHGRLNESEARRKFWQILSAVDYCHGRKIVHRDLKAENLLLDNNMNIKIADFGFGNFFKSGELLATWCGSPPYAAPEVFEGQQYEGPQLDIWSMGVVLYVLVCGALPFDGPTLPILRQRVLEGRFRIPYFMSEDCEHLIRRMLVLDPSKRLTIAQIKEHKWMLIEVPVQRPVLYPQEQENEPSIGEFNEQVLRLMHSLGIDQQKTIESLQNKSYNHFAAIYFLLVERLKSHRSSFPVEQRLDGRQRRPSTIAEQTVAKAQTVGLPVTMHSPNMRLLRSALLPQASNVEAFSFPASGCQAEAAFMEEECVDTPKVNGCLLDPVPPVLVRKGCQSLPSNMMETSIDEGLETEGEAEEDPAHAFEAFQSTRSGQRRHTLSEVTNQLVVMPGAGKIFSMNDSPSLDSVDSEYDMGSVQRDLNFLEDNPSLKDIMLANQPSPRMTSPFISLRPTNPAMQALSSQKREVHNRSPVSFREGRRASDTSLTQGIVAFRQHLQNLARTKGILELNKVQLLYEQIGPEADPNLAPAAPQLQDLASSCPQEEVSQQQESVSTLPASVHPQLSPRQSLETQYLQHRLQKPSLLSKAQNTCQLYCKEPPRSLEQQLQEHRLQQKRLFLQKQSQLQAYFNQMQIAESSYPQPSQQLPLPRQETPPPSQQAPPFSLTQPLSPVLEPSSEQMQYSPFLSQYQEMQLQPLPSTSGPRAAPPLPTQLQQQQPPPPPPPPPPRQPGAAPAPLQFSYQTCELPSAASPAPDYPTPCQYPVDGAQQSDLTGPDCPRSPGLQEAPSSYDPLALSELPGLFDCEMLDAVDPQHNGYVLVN

| IC50 [1] | IC50 [2] | EC50 [3] | IC50 [4] | SMILES |
| --- | --- | --- | --- | --- |
| > 500 nM | > 500 nM | 1000 to 5000 nM | 10 to 100 nM | COc1cc(-c2cnc3cc(OC(C)(C)CO)ccn23)cc(OC(F)F)c1C(=O)NC1CC1 [Cpd 209, N-cyclopropyl-2-(difluoromethoxy)-4-[7-(2-hydroxy-1,1-dimethyl-ethoxy)imidazo[1,2-a]pyridin-3-yl]-6-methoxy-benzamide] |
| 0.01 to 10 nM | 100 to 500 nM | 100 to 1000 nM | 0.01 to 10 nM | COc1cc(-c2cnc3cc(OCCN4CC(F)(F)C4)ccn23)cc2c1C(=O)N(CC(F)(F)F)CC2 [Cpd 244, 6-[7-[2-(3,3-difluoroazetidin-1-yl)ethoxy]imidazo[1,2-a]pyridin-3-yl]-8-methoxy-2-(2,2,2-trifluoroethyl)-3,4-dihydroisoquinolin-1-one] |
| 10 to 100 nM | 100 to 500 nM | 100 to 1000 nM | 0.01 to 10 nM | COc1cc(-c2cnc3cc(OCCN4CCOC[C@@H]4C)ccn23)cc2c1C(=O)N(CC(F)(F)F)CC2 [Cpd 257, 8-methoxy-6-[7-[2-[(3S)-3-methylmorpholin-4-yl]ethoxy]imidazo[1,2-a]pyridin-3-yl]-2-(2,2,2-trifluoroethyl)-3,4-dihydroisoquinolin-1-one] |
| 0.01 to 10 nM | 10 to 100 nM | 1000 to 5000 nM | 0.01 to 10 nM | COc1cc(-c2cnc3cc(OCCCN4CC(O)C4)ccn23)cc(OC(F)F)c1C(=O)NC1CC1 [Cpd 286, N-cyclopropyl-2-(difluoromethoxy)-4-[7-[3-(3-hydroxyazetidin-1-yl)propoxy]imidazo[1,2-a]pyridin-3-yl]-6-methoxy-benzamide] |
| 0.01 to 10 nM | 10 to 100 nM | 0.1 to 100 nM | 0.01 to 10 nM | COc1cc(-c2cnc3cc(OCC(O)CN4CCCCC4)ccn23)cc(OC(F)F)c1C(=O)NC1CC1 (stereo not drawn) [Cpd 321, N-cyclopropyl-2-(difluoromethoxy)-4-[7-[2-hydroxy-3-(1-piperidyl)propoxy]imidazo [1,2-a]pyridin-3-yl]-6-methoxy-benzamide] |
| 0.01 to 10 nM | 10 to 100 nM | 100 to 1000 nM | 0.01 to 10 nM | COc1cc(-c2cnc3cc(OCCCN4CCC5(CC4)CNC(=O)O5)ccn23)cc(OC(F)F)c1C(=O)NC1CC1 [Cpd 324, N-cyclopropyl-2-(difluoromethoxy)-6-methoxy-4-[7-[3-(2-oxo-1-oxa-3,8-diazaspiro[4.5]decan-8-yl)propoxy]imidazo[1,2-a]pyridin-3-yl]benzamide] |
| 0.01 to 10 nM | 10 to 100 nM | 0.1 to 100 nM | 0.01 to 10 nM | COc1cc(-c2cnc3cc(OCC(O)CN4CCOCC4)ccn23)cc(OC(F)F)c1C(=O)NC1CC1 (stereo not drawn) [Cpd 330, N-cyclopropyl-2-(difluoromethoxy)-4-[7-(2-hydroxy-3-morpholino-propoxy)imidazo[1,2-a]pyridin-3-yl]-6-methoxy-benzamide] |
| 0.01 to 10 nM | 10 to 100 nM | 100 to 1000 nM | 0.01 to 10 nM | COc1cc(-c2cnc3cc(OCCCN4CCS(=O)(=O)CC4)ccn23)cc(OC(F)F)c1C(=O)NC1CC1 [Cpd 331, N-cyclopropyl-2-(difluoromethoxy)-4-[7-[3-(1,1-dioxo-1,4-thiazinan-4-yl)propoxy]imidazo[1,2-a]pyridin-3-yl]-6-methoxy-benzamide] |
| 0.01 to 10 nM | 10 to 100 nM | 0.1 to 100 nM | 0.01 to 10 nM | CCOC(=O)C1(F)CCN(CCCOc2ccn3c(-c4cc(OC)c(C(=O)NC5CC5)c(OC(F)F)c4)cnc3c2)CC1 [Cpd 363, ethyl 1-[3-[3-[4-(cyclopropylcarbamoyl)-3-(difluoromethoxy)-5-methoxy-phenyl]imidazo[1,2-a]pyridin-7-yl]oxypropyl]-4-fluoro-piperidine-4-carboxylate] |
| 0.01 to 10 nM | 10 to 100 nM | 100 to 1000 nM | 0.01 to 10 nM | COc1cc(-c2cnc3cc(OCCN4CCN(C)CC4)ccn23)cc(OC(F)F)c1C(=O)NC1CC1 [compound 9, N-cyclopropyl-2-(difluoromethoxy)-6-methoxy-4-[7-[2-(4-methylpiperazin-1-yl)ethoxy]imidazo[1,2-a]pyridin-3-yl]benzamide] |
| 0.01 to 10 nM | 10 to 100 nM | 0.1 to 100 nM | 0.01 to 10 nM | COc1cc(-c2cnc3cc(OCCN4CCCCC4)ccn23)cc(OC(F)F)c1C(=O)NC1CC1 [compound 10, N-cyclopropyl-2-(difluoromethoxy)-6-methoxy-4-[7-[2-(1-piperidyl)ethoxy]imidazo [1,2-a]pyridin-3-yl]benzamide] |
| 0.01 to 10 nM | 10 to 100 nM | 0.1 to 100 nM | 0.01 to 10 nM | COc1cc(-c2cnc3cc(OCCC4CCCN4C)ccn23)cc(OC(F)F)c1C(=O)NC1CC1 (stereo not drawn) [compound 17, N-cyclopropyl-2-(difluoromethoxy)-6-methoxy-4-[7-[2-(1-methylpyrrolidin-2-yl)ethoxy]imidazo[1,2-a]pyridin-3-yl]benzamide] |
| 0.01 to 10 nM | 100 to 500 nM | 100 to 1000 nM | 0.01 to 10 nM | COc1cc(-c2cnc3cc(OCC4CCCCN4C)ccn23)cc(OC(F)F)c1C(=O)NC1CC1 (stereo not drawn) [compound 23, N-cyclopropyl-2-(difluoromethoxy)-6-methoxy-4-[7-[(1-methyl-2-piperidyl)methoxy]imidazo[1,2-a]pyridin-3-yl]benzamide] |
| 0.01 to 10 nM | 10 to 100 nM | 100 to 1000 nM | 0.01 to 10 nM | CCNCCOc1ccn2c(-c3cc(OC)c(C(=O)NC4CC4)c(OC(F)F)c3)cnc2c1 [compound 37, N-cyclopropyl-2-(difluoromethoxy)-4-[7-[2-(ethylamino)ethoxy]imidazo[1,2-a]pyridin-3-yl]-6-methoxy-benzamide] |
| 0.01 to 10 nM | 100 to 500 nM | 100 to 1000 nM | 0.01 to 10 nM | COc1cc(-c2cnc3cc(OCC4CN(C)C4)ccn23)cc2c1C(=O)N(CC(F)(F)F)CC2 [compound 39, 8-methoxy-6-[7-[(1-methylazetidin-3-yl)methoxy]imidazo[1,2-a]pyridin-3-yl]-2-(2,2,2-trifluoroethyl)-3,4-dihydro isoquinolin-1-one] |
| 0.01 to 10 nM | > 500 nM | 100 to 1000 nM | 0.01 to 10 nM | COc1cc(-c2cnc3cc(OCCN4CCCCC4)ccn23)cc2c1C(=O)N(CC(F)(F)F)CC2 [compound 40, 8-methoxy-6-[7-[2-(1-piperidyl)ethoxy]imidazo [1,2-a]pyridin-3-yl]-2-(2,2,2-trifluoroethyl)-3,4-dihydroisoquinolin-1-one] |
| 0.01 to 10 nM | 100 to 500 nM | 1000 to 5000 nM | 0.01 to 10 nM | COc1cc(-c2cnc3cc(OCCN4CCS(=O)(=O)CC4)ccn23)cc2c1C(=O)N(CC(F)(F)F)CC2 [compound 41, 6-[7-[2-(1,1-dioxo-1,4-thiazinan-4-yl)ethoxy]imidazo[1,2-a]pyridin-3-yl]-8-methoxy-2-(2,2,2-trifluoroethyl)-3,4-dihydroisoquinolin-1-one] |
| 0.01 to 10 nM | 10 to 100 nM | 100 to 1000 nM | 0.01 to 10 nM | COc1cc(-c2cnc3cc(OCc4ccnn4C)ccn23)cc(OC(F)F)c1C(=O)NC1CC1 [compound 44, N-cyclopropyl-2-(difluoromethoxy)-6-methoxy-4-[7-[(2-methylpyrazol-3-yl)methoxy]imidazo[1,2-a]pyridin-3-yl] benzamide] |
